Test results: ChEMBL document CHEMBL2010722, “Structure-activity relationship study of beta-carboline derivatives as haspin kinase inhibitors” (Bioorg Med Chem Lett, 2012)
Active and inactive are the calls of the source. No cut-off for these calls is given here.

Tests used:
[1] = molecular target: T1, Dual specificity tyrosine-phosphorylation-regulated kinase 2 (Homo sapiens, UniProt Q92630)
T1 sequence (Q92630 whole entry): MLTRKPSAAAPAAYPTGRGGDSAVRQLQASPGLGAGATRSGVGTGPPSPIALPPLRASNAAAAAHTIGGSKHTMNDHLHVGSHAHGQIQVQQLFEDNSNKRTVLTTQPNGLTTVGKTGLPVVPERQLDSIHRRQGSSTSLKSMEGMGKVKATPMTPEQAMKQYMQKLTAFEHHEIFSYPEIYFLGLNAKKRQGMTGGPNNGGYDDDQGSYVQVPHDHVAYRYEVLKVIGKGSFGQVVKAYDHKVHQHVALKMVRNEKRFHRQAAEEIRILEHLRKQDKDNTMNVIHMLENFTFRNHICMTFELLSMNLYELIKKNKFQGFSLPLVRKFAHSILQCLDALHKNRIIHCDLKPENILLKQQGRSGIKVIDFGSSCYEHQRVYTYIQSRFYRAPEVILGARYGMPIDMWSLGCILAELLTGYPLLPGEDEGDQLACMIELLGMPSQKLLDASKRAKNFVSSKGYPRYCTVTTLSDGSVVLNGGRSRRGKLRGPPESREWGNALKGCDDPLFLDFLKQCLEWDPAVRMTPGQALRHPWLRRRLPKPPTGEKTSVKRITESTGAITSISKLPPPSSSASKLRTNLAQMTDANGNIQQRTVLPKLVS

[2] = molecular target: T2, Serine/threonine-protein kinase haspin (Homo sapiens, UniProt Q8TF76)
T2 sequence (Q8TF76 whole entry): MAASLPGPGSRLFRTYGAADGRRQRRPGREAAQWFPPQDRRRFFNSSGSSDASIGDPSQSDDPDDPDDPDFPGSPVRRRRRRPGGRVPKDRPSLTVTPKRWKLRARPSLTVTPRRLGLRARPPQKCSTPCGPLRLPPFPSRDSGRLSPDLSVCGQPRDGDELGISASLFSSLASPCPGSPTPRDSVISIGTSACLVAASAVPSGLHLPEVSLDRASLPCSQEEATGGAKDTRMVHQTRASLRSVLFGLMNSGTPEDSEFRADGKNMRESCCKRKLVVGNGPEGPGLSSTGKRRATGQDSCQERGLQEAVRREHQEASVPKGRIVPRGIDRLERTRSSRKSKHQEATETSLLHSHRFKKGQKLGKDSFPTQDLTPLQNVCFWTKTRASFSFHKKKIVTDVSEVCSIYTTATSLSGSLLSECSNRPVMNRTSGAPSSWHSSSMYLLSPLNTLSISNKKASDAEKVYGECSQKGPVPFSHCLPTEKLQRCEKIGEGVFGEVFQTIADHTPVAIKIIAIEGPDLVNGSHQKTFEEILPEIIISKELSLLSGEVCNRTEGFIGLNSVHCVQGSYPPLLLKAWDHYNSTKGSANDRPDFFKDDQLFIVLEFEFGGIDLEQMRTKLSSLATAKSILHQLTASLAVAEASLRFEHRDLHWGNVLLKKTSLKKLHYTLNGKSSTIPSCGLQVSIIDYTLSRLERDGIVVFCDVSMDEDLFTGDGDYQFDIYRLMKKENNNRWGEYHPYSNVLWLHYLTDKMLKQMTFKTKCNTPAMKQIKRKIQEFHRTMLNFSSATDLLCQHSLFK

[3] = molecular target: Serine/threonine-protein kinase haspin (Homo sapiens) (UniProt Q8TF76); experiment: Inhibition of human recombinant N-terminal MBP-tagged haspin kinase expressed in Escherichia coli DE3 at 10 uM after 10 mins by TR-FRET assay
[4] = molecular target: T1, Dual specificity tyrosine-phosphorylation-regulated kinase 2; experiment: Inhibition of DYRK2

SMILES | IC50 [1] [µM] | IC50 [2] [µM] | inhibition [3] | IC50 [4] [µM]
CCc1nccc2c3ccc(OC)cc3n(CCCCN)c12 | > 10 | 0.19 | – | –
Cc1nccc2c3ccc(O)cc3n(CCCCN)c12 | > 10 | 0.16 | – | –
Cc1nccc2c1[nH]c1cc(OCCCN)ccc12 | – | – | inactive | –
Cc1[nH]ccc2c1[nH]c1cc(=O)ccc12 [HARMOL] | – | 0.77 | – | 1.5
COc1ccc2c3ccncc3n(CCCCN)c2c1 | > 10 | 0.3 | – | –
COc1ccc2c(c1)[nH]c1c(C)nccc12 [HARMINE] | – | – | – | 0.69
COc1cccc2c3ccnc(C)c3n(CCCCN)c12 | > 10 | 0.22 | – | –
NCCCCn1c2cc(O)ccc2c2ccnc(C(F)(F)F)c21 | 8.5 | 0.22 | – | –
COc1ccc2c(c1)c1ccnc(C)c1n2CCCCN | 4.9 | 2.4 | – | –
Cc1nccc2c3cc4c(cc3n(CCCCN)c12)OCO4 | 4.8 | 0.5 | – | –
COc1ccc2c3ccnc(C(C)C)c3n(CCCCN)c2c1 | > 10 | 0.46 | – | –
Cc1nccc2c3ccc(F)cc3n(CCCCN)c12 | > 10 | 0.58 | – | –
Cc1nccc2c3ccc(OC(C)(C)C)cc3n(CCCCN)c12 | > 10 | 4.6 | – | –
COc1cccc2c1c1ccnc(C)c1n2CCCCN | 7 | 2.7 | – | –
Cc1nccc2c3ccc(NS(C)(=O)=O)cc3n(CCCCN)c12 | > 10 | 0.69 | – | –
COc1ccc2c3ccnc(C)c3n(CCCCN(C)C)c2c1 | > 10 | 0.47 | – | –
COc1ccc2c3ccnc(C)c3n(CCCCN)c2c1Cl | 8 | 0.83 | – | –
Cc1nccc2c1[nH]c1cc(OCCCCN)ccc12 | – | – | inactive | –
CNCCCCn1c2cc(OC)ccc2c2ccnc(C)c21 | > 10 | 0.34 | – | –
COc1ccc2c3ccnc(C)c3n(CCCCN)c2c1 | > 10 | 0.17 | – | –
